Literature values as cited in PMC8309005, “Novel Non-Congeneric Derivatives of the Choline Kinase Alpha Inhibitor ICL-CCIC-0019” (Pharmaceutics, 2021).

Tests used:
CHKA = test system: CHKA; design: method as in ref 18, 25 (HC-3), 20, 21 (MN58B), 23 (RSM-932A); conditions: CHKA inhibitors of Figure 1; 25 (HC-3), 20, 21 (MN58B), 23 (RSM-932A); cited from earlier work
HT-29 = test system: HT-29; design: method as in ref 20, 21 (MN58B), 23 (RSM-932A); conditions: 21 (MN58B), 23 (RSM-932A); cited from earlier work
HeLa = test system: HeLa; design: method as in ref 20, 21 (MN58B), 23 (RSM-932A); conditions: 21 (MN58B), 23 (RSM-932A); cited from earlier work
A431 = test system: A431; design: method as in PMID 12678804, PMID 10397253; conditions: cited from earlier work
MCF-7 = test system: MCF-7; design: method as in PMID 12678804, PMID 10397253; conditions: cited from earlier work
HepG2 = test system: HepG2; design: method as in PMID 25487918; conditions: cited from earlier work

SMILES	IC50 (CHKA) [nM]	GI50 (HT-29) [nM]	GI50 (HeLa) [nM]	GI50 (A431) [nM]	GI50 (MCF-7) [nM]	GI50 (HepG2) [nM]
CN(C)c1cc[n+](Cc2ccc(CCCCc3ccc(C[n+]4ccc(N(C)C)cc4)cc3)cc2)cc1 [MN58B]	1400	1400	1200	2100	600	–
C/[N+](c1ccc(Cl)cc1)=c1\ccn(Cc2ccc(-c3ccc(Cn4cc/c(=[N+](/C)c5ccc(Cl)cc5)c5ccccc54)cc3)cc2)c2ccccc12 [RSM-932A]	1000	1300	1000	–	–	1300
